Data on 29 compounds can be found in patent US8063048B2, “Acetylenyl-pyrazolo-pyrimidine derivatives” (Hoffmann-La Roche Inc., priority 2005, dated 2011).

Structures are written as SMILES.

For `CC(C)(O)c1ccc(C#Cc2cnn3c(C(F)(F)F)cc(-c4ccc(C(F)(F)F)cc4)nc23)cc1` [Example 202, 2-{4-[7-Trifluoromethyl-5-(4-trifluoromethyl-phenyl)-pyrazolo[1,5-a]pyrimidin-3-ylethynyl]-phenyl}-propan-2-ol], the melting point was 170 to 171 °C.

`CS(=O)(=O)c1cccc(C#Cc2cnn3c(C(F)(F)F)cc(-c4ccc(C(F)(F)F)cc4)nc23)c1` [Example 40, 3-(3-Methanesulfonyl-phenylethynyl)-7-trifluoromethyl-5-(4-trifluoromethyl-phenyl)-pyrazolo[1,5-a]pyrimidine] gave a melting point of 214 °C.

`NS(=O)(=O)c1cc(C#Cc2cnn3c(C4CC4)cc(-c4ccc(C(F)(F)F)cc4)nc23)c(F)cc1F` [Example 77, 5-[7-Cyclopropyl-5-(4-trifluoromethyl-phenyl)-pyrazolo[1,5-a]pyrimidin-3-ylethynyl]-2,4-difluoro-benzenesulfonamide]: the melting point is 255 to 257 °C.

Turning to `Cc1cc(-c2cc(C(F)(F)F)n3ncc(C#Cc4cnc(N)nc4)c3n2)ccc1C(F)(F)F` [Example 290, 5-[5-(3-Methyl-4-trifluoromethyl-phenyl)-7-trifluoromethyl-pyrazolo[1,5-a]pyrimidin-3-ylethynyl]-pyrimidin-2-ylamine], the melting point came to 240 °C.

The compound `CC(C)(CO)NS(=O)(=O)c1cccc(C#Cc2cnn3c(C(F)F)cc(-c4ccc(C(F)(F)F)cc4)nc23)c1` [Example 32, 3-[7-Difluoromethyl-5-(4-trifluoromethyl-phenyl)-pyrazolo[1,5-a]pyrimidin-3-ylethynyl]-N-(2-hydroxy-1,1-dimethyl-ethyl)-benzenesulfonamide] returned a melting point of 161 to 162 °C.

In turn, `Cc1cc(-c2cc(C(F)F)n3ncc(C#Cc4ccc(S(N)(=O)=O)cc4)c3n2)ccc1Cl` [Example 173, 4-[5-(4-Chloro-3-methyl-phenyl)-7-difluoromethyl-pyrazolo[1,5-a]pyrimidin-3-ylethynyl]-benzenesulfonamide] registered a melting point of 237 °C.

`O=S(=O)(Nc1cccnc1)c1ccc(C#Cc2cnn3c(C(F)(F)F)cc(-c4ccc(C(F)(F)F)cc4)nc23)s1` [Example 279, 5-[7-Trifluoromethyl-5-(4-trifluoromethyl-phenyl)-pyrazolo[1,5-a]pyrimidin-3-ylethynyl]-thiophene-2-sulfonic acid pyridin-3-ylamide] displayed a melting point of 248 °C.

The compound `Cc1cc(-c2ccc(Cl)cc2)nc2c(C#Cc3cnc(N)nc3)cnn12` [Example 316, 5-[5-(4-Chloro-phenyl)-7-methyl-pyrazolo[1,5-a]pyrimidin-3-ylethynyl]-pyrimidin-2-ylamine] gave a melting point of 280 to 282 °C.

In turn, `N#Cc1cc(C#Cc2cnn3c(C(F)F)cc(-c4ccc(C(F)(F)F)cc4)nc23)cnc1N` [Example 218, 2-Amino-5-[7-difluoromethyl-5-(4-trifluoromethyl-phenyl)-pyrazolo[1,5-a]pyrimidin-3-ylethynyl]-nicotinonitrile] displayed a melting point of 255 °C.

Compound `Nc1ccc(C#Cc2cnc3c(C(F)(F)F)cc(-c4ccc(C(F)(F)F)cc4)cn23)cn1` [Example 191, 5-[8-Trifluoromethyl-6-(4-trifluoromethyl-phenyl)-imidazo[1,2-a]pyridin-3-ylethynyl]-pyridin-2-ylamine] displayed a melting point of 260 to 262 °C.

In the case of `NS(=O)(=O)c1ccc(C#Cc2cnn3c(C4CC4)cc(-c4ccc(C(F)(F)F)cc4)nc23)s1` [Example 83, 5-[7-Cyclopropyl-5-(4-trifluoromethyl-phenyl)-pyrazolo[1,5-a]pyrimidin-3-ylethynyl]-thiophene-2-sulfonic acid amide], the melting point is 231 to 233 °C.

With `CC(C)(C)OC(=O)NCCNS(=O)(=O)c1cc(C#Cc2cnn3c(C(F)F)cc(-c4ccc(C(F)(F)F)cc4)nc23)c(F)cc1F` [Example 185, (2-{5-[7-Difluoromethyl-5-(4-trifluoromethyl-phenyl)-pyrazolo[1,5-a]pyrimidin-3-ylethynyl]-2,4-difluoro-benzenesulfonylamino}-ethyl)-carbamic acid tert-butyl ester], the melting point was 203 to 204 °C (dec.).

With `CNS(=O)(=O)c1ccc(C#Cc2cnn3c(C(F)(F)F)cc(-c4ccc(C(F)(F)F)cc4)nc23)cc1` [Example 123, N-Methyl-4-[7-trifluoromethyl-5-(4-trifluoromethyl-phenyl)-pyrazolo[1,5-a]pyrimidin-3-ylethynyl]-benzenesulfonamide], the melting point was 231 to 233 °C.

The compound `Cc1cc(-c2cc(C(F)F)n3ncc(C#Cc4ccc(S(=O)(=O)NC(C)(C)CO)s4)c3n2)ccc1Cl` [Example 175, 5-[5-(4-Chloro-3-methyl-phenyl)-7-difluoromethyl-pyrazolo[1,5-a]pyrimidin-3-ylethynyl]-thiophene-2-sulfonic acid (2-hydroxy-1,1-dimethyl-ethyl)-amide] registered a melting point of 145 °C.

With `N#Cc1ccc(C#Cc2cnn3c(C(F)(F)F)cc(-c4ccc(C(F)(F)F)cc4)nc23)cn1` [Example 288, 5-[7-Trifluoromethyl-5-(4-trifluoromethyl-phenyl)-pyrazolo[1,5-a]pyrimidin-3-ylethynyl]-pyridine-2-carbonitrile], the melting point turned out to be 212 °C.

`CC(CO)(CO)NS(=O)(=O)c1cncc(C#Cc2cnn3c(C4CC4)cc(-c4ccc(C(F)(F)F)cc4)nc23)c1` [Example 80, 5-[7-Cyclopropyl-5-(4-trifluoromethyl-phenyl)-pyrazolo[1,5-a]pyrimidin-3-ylethynyl]-pyridine-3-sulfonic acid (2-hydroxy-1-hydroxymethyl-1-methyl-ethyl)-amide]: the melting point is 190 to 191 °C.

The compound `Cc1cc(-c2cc(C(F)F)n3ncc(C#Cc4cc(S(N)(=O)=O)c(F)cc4F)c3n2)ccc1Cl` [Example 174, 5-[5-(4-Chloro-3-methyl-phenyl)-7-difluoromethyl-pyrazolo[1,5-a]pyrimidin-3-ylethynyl]-2,4-difluoro-benzenesulfonamide] gave a melting point of 270 °C.

In turn, `NS(=O)(=O)c1cc(C#Cc2cnn3c(C(F)(F)F)cc(-c4ccc(Cl)c(Cl)c4)nc23)c(F)cc1F` [Example 92, 5-[5-(3,4-Dichloro-phenyl)-7-trifluoromethyl-pyrazolo[1,5-a]pyrimidin-3-ylethynyl]-2,4-difluoro-benzenesulfonamide] came in with a melting point of 308 to 310 °C.

Compound `CC(C)(O)c1ccc(C#Cc2cnn3c(CO)cc(-c4ccc(Cl)cc4)nc23)cc1` [Example 299, 2-{4-[5-(4-Chloro-phenyl)-7-hydroxymethyl-pyrazolo[1,5-a]pyrimidin-3-ylethynyl]-phenyl}-propan-2-ol] displayed a melting point of 118 to 120 °C.

Take `NS(=O)(=O)c1cnc(C#Cc2cnn3c(C(F)(F)F)cc(-c4ccc(C(F)(F)F)cc4)nc23)s1` [Example 29, 2-[7-Trifluoromethyl-5-(4-trifluoromethyl-phenyl)-pyrazolo[1,5-a]pyrimidin-3-ylethynyl]-thiazole-5-sulfonic acid amide]: the melting point came to 235 °C.

`CC(C)(C)NS(=O)(=O)c1ccc(C#Cc2cnn3c(C(F)(F)F)cc(-c4cccc(C(F)(F)F)c4)nc23)s1` [Example 117, 5-[7-Trifluoromethyl-5-(3-trifluoromethyl-phenyl)-pyrazolo[1,5-a]pyrimidin-3-ylethynyl]-thiophene-2-sulfonic acid tert-butylamide]: the melting point was found to be 168 °C.

As to `Cc1cc(-c2ccc(Cl)cc2)nc2c(C#Cc3ccc(N)nc3)cnn12` [Example 295, 5-[5-(4-Chloro-phenyl)-7-methyl-pyrazolo[1,5-a]pyrimidin-3-ylethynyl]-pyridin-2-ylamine], the melting point is 244 to 246 °C.

`FC(F)(F)c1ccc(-c2cc(C(F)(F)F)c3ncc(C#Cc4cccnc4)n3c2)cc1` [Example 190, 3-Pyridin-3-ylethynyl-8-trifluoromethyl-6-(4-trifluoromethyl-phenyl)-imidazo[1,2-a]pyridine] came in with a melting point of 169 to 170 °C.

In turn, `CC(=O)Nc1ncc(C#Cc2cnn3c(C(F)(F)F)cc(-c4ccc(C(F)(F)F)cc4)nc23)s1` [Example 291, N-{5-[7-Trifluoromethyl-5-(4-trifluoromethyl-phenyl)-pyrazolo[1,5-a]pyrimidin-3-ylethynyl]-thiazol-2-yl}-acetamide] gave a melting point of 302 °C.

For `Cc1cc(-c2cc(C(F)(F)F)n3ncc(C#Cc4ncc(S(=O)(=O)NC(C)(C)CO)s4)c3n2)ccc1Cl` [Example 106, 2-[5-(4-Chloro-3-methyl-phenyl)-7-trifluoromethyl-pyrazolo[1,5-a]pyrimidin-3-ylethynyl]-thiazole-5-sulfonic acid (2-hydroxy-1,1-dimethyl-ethyl)-amide], the melting point stood at 217 °C.

The compound `CC(C)(CO)NS(=O)(=O)c1cccc(C#Cc2cnn3c(C(F)(F)F)cc(-c4ccc(C(F)(F)F)cc4)nc23)c1` [Example 4, N-(2-Hydroxy-1,1-dimethyl-ethyl)-3-[7-trifluoromethyl-5-(4-trifluoromethyl-phenyl)-pyrazolo[1,5-a]pyrimidin-3-ylethynyl]-benzenesulfonamide] displayed a melting point of 201 to 204 °C.

As for `O=S(=O)(c1ccc(C#Cc2cnn3c(C(F)(F)F)cc(-c4ccc(C(F)(F)F)cc4)nc23)s1)N1CCNCC1` [Example 260, 3-[5-(piperazine-1-sulfonyl)-thiophen-2-ylethynyl]-7-trifluoromethyl-5-(4-trifluoromethyl-phenyl)-pyrazolo[1,5-a]pyrimidine], the melting point worked out at 223 °C.

As to `Cc1cc(-c2ccc(C(F)(F)F)cc2)nc2c(C#Cc3cnc(N)nc3)cnn12` [Example 315, 5-[7-Methyl-5-(4-trifluoromethyl-phenyl)-pyrazolo[1,5-a]pyrimidin-3-ylethynyl]-pyrimidin-2-ylamine], the melting point lay within 246 to 248 °C.

For `Cc1cc(-c2ccc(C(F)(F)F)cc2)cn2c(C#Cc3ccc(S(N)(=O)=O)s3)cnc12` [Example 212, 5-[8-Methyl-6-(4-trifluoromethyl-phenyl)-imidazo[1,2-a]pyridin-3-ylethynyl]-thiophene-2-sulfonic acid amide], the melting point is 270 °C.

Usually melting point stands for the temperature, or range, at which the solid turns liquid.
